The text below walks through data of patent publication US8877483B2, “Dioxin elimination promoter” (priority 2002, dated 2014).

For this series, the system named is liver cytochrome P450. As to the kind of experiment: EPR spectra of rat liver after oral administration of PCB126 (construction of model animals). The class given is in vivo. The settings on record: rats, single forced oral dose 0, 0.3, 3, 30 or 100 μg/kg bw in corn oil, liver isolated 24 hour after administration; FIG. 1. As to the method:
When the EPR measurement is carried out with rat liver as an experimental animal, the resonance absorption of an iron atom contained in cytochrome P450 protein is observed at a position of g=2.40. When dioxin were administered to a rat, an abnormal resonance absorption which is not observed in untreated case appears as a signal at a position of g=2.49, in addition to the normal resonance absorptions. Since the intensity of the abnormal signal becomes higher according to increase of an amount of dioxins administered, it can be a living body index showing a degree of pollution.
As laboratory animals, rats to which PCB 126 (3,3′,4,4′,5-pentachlorobiphenyl) had been administered were prepared. The rats were 6-week-old Sprangue-Dawley (purchased from Nippon Charles River). After acclimation rearing for about one week, they forcedly administered with solutions containing an adequate concentration of PCB 126 (manufactured by Wellington Laboratories; purity: 99.99% or more) dissolved in commercially available corn oil (manufactured by Hayashi Chemicals) so that the amount of cPCB was 0 (control), 0.3, 3, 30 or 100 μg/kg body weight (bw) in the same amount of corn oil through a probe. PCB-administered rats were euthanized with ether 24 hour after the administration. […] Then, tissue fragments were analyzed by an EPR measurement method. […]

In the case of `Clc1ccc(-c2cc(Cl)c(Cl)c(Cl)c2)cc1Cl` [cPCB, 3,3′,4,4′,5-pentachlorobiphenyl], the “abnormal EPR signal at g=2.49 in liver tissue fragments” value is reported as “intensity varies depending on the administered amount”.
